Assay results as given in patent US20220133835A1, “ANTIDIABETIC COMPOSITION COMPRISING GINGER EXTRACT OBTAINED FROM MICROWAVE-PROCESSED GINGER AND METHOD OF PREVENTING OR TREATING DIABETIS MELLITUS” (priority 2020, published 2022).
Entries after “also recorded” stand apart in the source; their conditions may differ.

What was measured:
INS-1 cells [1] = assay: Glucose stimulated insulin secretion (GSIS) of INS-1 cell; format: cell-based, rat; conditions: for Stimulation index (SI): insulin secreted at 16.7 mM glucose divided by that at 3.3 mM glucose; for insulin secretion of INS-1 cells: summary in words of Tables 3 and 4
Procedure: Cell line INS-1 (Biohermes, Shanghai, China) is a […] insulinoma species and has insulin secretion ability. INS-1 cells were cultured in RPMI1640 (Cellgro, Manassas, Va., USA) medium supplemented with 10% fetal bovine serum (FBS), 100 units/mL penicillin G, 100 μg/mL streptomycin, 10 mM HEPES, 2 mM L-glutamine, 1 mM sodium pyruvate and 0.05 mM 2-mercapto ethanol under a condition of a temperature of 37° C., 90% air, and 10% CO2. Among the above-mentioned components, reagents not mentioned by the manufacturer were purchased from Gibco BRL, Life Technologies. 5×10^5 cultured INS-1 cells were inoculated in each well of the 12-well plate in the same medium of 2 mL and cultured for 24 hours under the same condition as described in Section (1) INS-1 cell culture to stabilize the cells. Then, 114 mM sodium chloride (NaCl), 4.4 mM potassium chloride (KCl), 1 mM magnesium sulfate (MgSO4), 1.28 mM calcium chloride (CaCl2)), 29.5 mM sodium hydrogen carbonate (NaHCO3), 10 mM HEPES; Gibco BRL Life Technologies), and 0.1% bovine serum albumin (BSA) were mixed, and the cells were washed twice with 2 mL of Krebs-Ringer buffer with a hydrogen ion concentration of pH 7.4. Thereafter, 2 mL of Krebs-Ringer buffer was added to the washed cells and incubated for 1 hour. Then, the ginger extract, each fraction, and each compound were incubated for 30 minutes in 1.8 mL of Krebs-Ringer buffer at a specific concentration. The specific concentrations of the ginger extract and a fraction thereof were set to 1 μg/m L, 2.5 μg/mL, and 5 μg/mL, and the specific concentrations of the single compound were set to 1 μM, 2.5 μM, and 5 μM. 0.2 mL of Krebs-Ringer buffers containing 33 mM and 167 mM glucose were each added to the wells and incubated for 1 hour. Thereafter, after centrifugation at 12,000 revolutions per minute (rpm) for 10 minutes at a temperature of 4° C., the supernatant was taken, and the amount of insulin was measured with a Rat insulin RIA kit (Gentaur Molecular Products, Belgium). The stimulation index (SI) is a value obtained by dividing a value measured at a high glucose concentration, that is, the amount of insulin secreted by stimulation of a 16.7 mM glucose concentration by a value measured at a low glucose concentration, that is, the amount of insulin secreted by stimulation of a 3.3 mM glucose concentration. As a positive control, gliclazide was used at concentrations of 2.5 μM, 5.0 μM, 10 μM, and 20 μM.

INS-1 cells [2] = assay: INS-1 cell toxicity (CCK-8 cell viability); conditions: for Cell viability (%): 24 hours, INS-1 cells, CCK-8; for toxicity against INS-1 cells: summary of Tables 1 and 2, up to 5 μg/mL or 5 μM
Procedure: Cell line INS-1 (Biohermes, Shanghai, China) is a […] insulinoma species and has insulin secretion ability. INS-1 cells were cultured in RPMI1640 (Cellgro, Manassas, Va., USA) medium supplemented with 10% fetal bovine serum (FBS), 100 units/mL penicillin G, 100 μg/mL streptomycin, 10 mM HEPES, 2 mM L-glutamine, 1 mM sodium pyruvate and 0.05 mM 2-mercapto ethanol under a condition of a temperature of 37° C., 90% air, and 10% CO2. Among the above-mentioned components, reagents not mentioned by the manufacturer were purchased from Gibco BRL, Life Technologies. The cultured INS-1 cells were inoculated in each well of a 96-well plate in the number of 1×10^4 in a medium of 100 μL and cultured for 24 hours to stabilize the cells. Next, the ginger extract, fraction thereof, and single compounds were added to a specific concentration, followed by culturing for 24 hours. Next, 10 μL of a CCK-8 reagent (Dojindo Laboratories, Japan) was added to each well, followed by culturing at a temperature of 37° C. After 1 hour, cell viability was measured by measuring absorbance at a wavelength of 450 nm on a BIO-TEK (Winooski, Vt., USA) microplate reader. The specific concentrations of the ginger extract and a fraction thereof were set to 1 μg/m L, 2.5 μg/mL, and 5 μg/mL, and the specific concentrations of the single compound were set to 1 μM, 2.5 μM, and 5 μM. Cell viability in Tables 1 and 2 was calculated as follows. Cell viability (%)=A/B×100 A: absorbance of sample to which a reagent is […]

ICR mice = assay: Oral glucose tolerance test (OGTT); format: in vivo, mouse; conditions: 100 mg/kg oral 1 hour before glucose 2 g/Kg, caudal vein blood at 0-120 minutes, vs control and unprocessed/6-gingerol group
Procedure: ICR mice were used for OGTT experiments. ICR mice were fasted for 12 hours before the experiment, blood was collected from the caudal vein of mice that had been fasted for 12 hours, and the fasting blood glucose level was measured as the initial blood glucose level. Thereafter, experiments were conducted with a group administered with glucose (2 g/Kg) (control), a group administered with glucose and a raw ginger extract (100 mg/kg, not processed), and a group administered with a microwave-processed ginger product (100 mg/kg, processed). After oral administration for each concentration, glucose was orally administered 1 hour later, and measurement was performed by using a blood glucose meter from the caudal vein at 0, 15, 30, 60, and 120 minutes. FIG. 3 is a graph of results of an oral glucose tolerance test of a ginger extract and a microwave-processed ginger product.
Next, to test the efficacy of a single component of ginger, blood was collected from the caudal vein of mice that had been fasted for 12 hours, and the fasting blood glucose level was measured as the initial blood glucose level. Thereafter, experiments were conducted with a group administered with glucose (2 g/Kg) (control), a group administered with glucose and 6-gingerol (100 mg/kg), and a group administered with glucose and 6-shogaol (100 mg/kg). […]

[3] = through induction of cell defense mechanisms; cited from earlier work

| Molecule | Stimulation index (SI) (INS-1 cells [1]; 1 μM) | Stimulation index (SI) (INS-1 cells [1]; 2.5 μM) | Stimulation index (SI) (INS-1 cells [1]; 5 μM) | Cell viability (%) (INS-1 cells [2]; 1 μM) | Cell viability (%) (INS-1 cells [2]; 2.5 μM) | Cell viability (%) (INS-1 cells [2]; 5 μM) | insulin secretion of INS-1 cells (INS-1 cells [1]) | toxicity against INS-1 cells (INS-1 cells [2]) | increase in blood glucose level (ICR mice) | anticancer activity compared with [6]-gingerol [3] |
| --- | --- | --- | --- | --- | --- | --- | --- | --- | --- | --- |
| Cc1ccc(S(=O)(=O)NC(=O)NN2CC3CCCC3C2)cc1 (stereo not shown) [Glyclazide, gliclazide, reference compound] | 1.3 ± 0.0 | 1.9 ± 0.1 | 3.0 ± 0.1 | 99.7 ± 0.2% | 96.3 ± 0.9% | 91.1 ± 1.4% | – | – | – | – |
| CCCCC[C@H](O)CC(=O)CCc1ccc(O)c(OC)c1 [[6]-gingerol] | 2.4 ± 0.0 | 2.2 ± 0.1 | 2.3 ± 0.1 | 98.1 ± 2.7% | 98.7 ± 2.3% | 98.2 ± 3.5% | secreted insulin concentration-dependently | not to exhibit toxicity | – | – |
| CCCCC/C=C/C(=O)CCc1ccc(O)c(OC)c1 [[6]-shogaol] | 3.0 ± .0 | 3.5 ± 0.1 | 4.8 ± 0.0 | 101.1 ± 0.4% | 101.8 ± 0.7% | 101.2 ± 0.2% | secreted insulin concentration-dependently; also recorded: promote insulin secretion in INS-1 cells, as compared with other components | not to exhibit toxicity | significantly reduced | – |
| CCCCCCC[C@H](O)CC(=O)CCc1ccc(O)c(OC)c1 [[8]-gingerol] | 1.1 ± 0.0 | 1.5 ± 0.0 | 2.1 ± 0.0 | – | – | – | secreted insulin concentration-dependently | – | – | – |
| CCCCCCC/C=C/C(=O)CCc1ccc(O)c(OC)c1 [[8]-shogaol] | 1.3 ± 0.1 | 1.5 ± 0.1 | 1.8 ± 0.1 | 94.0 ± 2.6% | 96.3 ± 1.9% | 92.4 ± 1.7% | secreted insulin concentration-dependently | not to exhibit toxicity | – | – |
| CCCCCCCCC[C@H](O)CC(=O)CCc1ccc(O)c(OC)c1 [[10]-gingerol] | 1.7 ± 0.2 | 1.7 ± 0.1 | 1.5 ± 0.1 | 99.3 ± 1.6% | 100.6 ± 3.3% | 100.7 ± 3.5% | secreted insulin concentration-dependently | not to exhibit toxicity | – | – |
| CCCCCCCCC/C=C/C(=O)CCc1ccc(O)c(OC)c1 [[10]-shogaol] | 1.9 ± 0.0 | 1.4 ± 0.0 | 1.4 ± 0.1 | 101.9 ± 2.2% | 99.8 ± 3.9% | 99.6 ± 3.3% | secreted insulin concentration-dependently | not to exhibit toxicity | – | – |
| shogaol | – | – | – | – | – | – | – | – | – | more than 10 times |
